Data taken from ChEMBL document CHEMBL4622879, “Structural Revision of Garcinielliptin Oxide and Garcinielliptone E” (J Nat Prod, 2020).
Activity calls are given as the source filed them. The rule behind the calls is not given here.

Legend:
RAW264.7 = experiment: Antiinflammatory activity in mouse RAW264.7 assessed as reduction in LPS-induced NO production; assay type: functional, cell-based
A549 = experiment: Cytotoxicity against human A549 cells at 40 uM after 1 to 11 days by tetrazolium reagent based assay; assay type: functional, cell-based
MDA-MB-231 = experiment: Cytotoxicity against human MDA-MB-231 cells at 40 uM after 1 to 11 days by tetrazolium reagent based assay; assay type: functional, cell-based
K562 = experiment: Cytotoxicity against human K562 cells at 40 uM after 1 to 11 days by tetrazolium reagent based assay; assay type: functional, cell-based
HepG2 = experiment: Cytotoxicity against human HepG2 cells at 40 uM after 1 to 11 days by tetrazolium reagent based assay; assay type: functional, cell-based
HCT-116 = experiment: Cytotoxicity against human HCT116 cells at 40 uM after 1 to 11 days by tetrazolium reagent based assay; assay type: functional, cell-based
Acetylcholinesterase = Acetylcholinesterase (Homo sapiens, UniProt P22303); experiment: Inhibition of human erythrocyte acetylcholinesterase using acetylthiocholine as substrate preincubated for 20 mins followed by substrate addition and measured after 30 mins by Ellman's method
Chain of Acetylcholinesterase (P22303 whole entry): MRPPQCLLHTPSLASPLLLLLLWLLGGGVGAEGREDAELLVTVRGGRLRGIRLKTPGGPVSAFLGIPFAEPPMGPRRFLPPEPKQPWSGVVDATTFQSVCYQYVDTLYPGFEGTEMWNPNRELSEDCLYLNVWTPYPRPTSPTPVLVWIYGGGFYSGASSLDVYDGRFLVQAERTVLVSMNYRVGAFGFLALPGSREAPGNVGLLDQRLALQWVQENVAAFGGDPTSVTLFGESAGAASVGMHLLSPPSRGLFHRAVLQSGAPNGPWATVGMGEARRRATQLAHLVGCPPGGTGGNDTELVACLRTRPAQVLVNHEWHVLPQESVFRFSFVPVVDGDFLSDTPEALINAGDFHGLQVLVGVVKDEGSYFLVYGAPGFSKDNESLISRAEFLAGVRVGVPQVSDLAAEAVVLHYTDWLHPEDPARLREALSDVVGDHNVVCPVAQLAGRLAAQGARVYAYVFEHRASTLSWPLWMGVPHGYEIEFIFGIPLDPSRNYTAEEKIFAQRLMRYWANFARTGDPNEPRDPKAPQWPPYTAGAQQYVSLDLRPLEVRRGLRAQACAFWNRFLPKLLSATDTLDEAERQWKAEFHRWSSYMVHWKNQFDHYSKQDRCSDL

Row | Structure (SMILES) | Activity (RAW264.7) | Activity (A549) | Activity (MDA-MB-231) | Activity (K562) | Activity (HepG2) | Activity (HCT-116) | IC50 (Acetylcholinesterase)
1 | CCC(C)C(=O)[C@]12C(=O)[C@]3(CC=C(C)C)OC1(O)[C@](CC=C(C)C)(C[C@H](CC=C(C)C)C2(C)C)C3=O (stereo partly drawn) | inactive | inactive | inactive | inactive | inactive | inactive | –
2 | CC(C)=CC[C@H]1C[C@]2(CC=C(C)C)C(=O)[C@]3(CC=C(C)C)O[C@@]1(C(=O)C(C)C)[C@@]2(O)C(C)(C)C3=O | inactive | inactive | inactive | inactive | inactive | inactive | 20.7 µM
